Assay [1] deals with recovery from the procedure. Kind of assay: adjunct to opioid anesthesia for Cesarean section. The format is in vivo. The following applies: in opioid solution, subarachnoid; SL 60 mg/kg, SJ 630 mg/kg, SK 50 mg/kg.
Procedure: A person scheduled for a Cesarean section is prepared according to standard guidelines. A subarachnoid block is performed in the sitting position, following the administration of 1-2 liters of crystalloid solution. Skin infiltration with local anaesthetic is performed at the L2-3 or L3-L4 interspace. A spinal needle introducer is used to facilitate insertion of the needle into the patient. The needle is introduced into the epidural space and perforates the dura. The emergence of cerebrospinal fluid indicates proper placement of the needle. An opiod solution containing approximately 60 mg/kg of SL is administered and injected slowly of a ten to fifteen second time interval. […] The needle is then removed and resulting wound is dressed. The Cesarean section proceeds according to a standard protocol.
A person scheduled for a Cesarean section is prepared according to standard guidelines. A subarachnoid block is performed in the sitting position, following the administration of 1-2 liters of crystalloid solution. Skin infiltration with local anaesthetic is performed at the L2-3 or L3-L4 interspace. A spinal needle introducer is used to facilitate insertion of the needle into the patient. The needle is introduced into the epidural space and perforates the dura. The emergence of cerebrospinal fluid indicates proper placement of the needle. An opiod solution containing approximately 630 mg/kg of SJ is administered and injected slowly of a ten to fifteen second time interval. […] The needle is then removed and resulting wound is dressed. The Cesarean section proceeds according to a standard protocol.
A person scheduled for a Cesarean section is prepared according to standard guidelines. A subarachnoid block is performed in the sitting position, following the administration of 1-2 liters of crystalloid solution. Skin infiltration with local anaesthetic is performed at the L2-3 or L3-L4 interspace. A spinal needle introducer is used to facilitate insertion of the needle into the patient. The needle is introduced into the epidural space and perforates the dura. […]
Assay [2] concerns the target T1, p38 MAPK (Homo sapiens, UniProt Q16539).
T1 construct: expressed in transfected cells; host or cells: HeLa (kinase immunoprecipitated from lysates of transfected, stimulated cells)
Kind of assay: p38 MAPK phosphorylation assay (similar to Kumar). The format is biochemical. The procedure:
Alternative assays involving in vitro analysis of potential inhibitors include those where cells (HeLa) transfected with DNA coding for relevant kinases can be activated with substances such as sorbitol, IL-1, TNF, or PMA (phorbol myristate acetate). After immunoprecipitation of cell lysates, equal aliquots of immune complexes of the kinases are pre-incubated for an adequate time with a specific concentration of the potential inhibitor followed by addition of kinase substrate buffer mix containing labeled ATP and GST-ATF2 or MBP. After incubation, kinase reactions are ceased by the addition of SDS loading buffer. Phosphorylated substrate is resolved through SDS-PAGE and visualized and quantitated in a phosphorimager. Both p38 regulation, in terms of phosphorylation, and IC50 values can be determined by quantitation. […] Res. Commun. […]

In assay [3] the test system is post-activity related discomfort. Kind of assay: pain associated with athletic endeavor. The assay is classed as in vivo. The following applies: before a long distance race; SH 50 mg/kg, SI 20 mg/kg, SM 40 mg/kg. The procedure:
A subject preparing for an athletic endeavor, the running of a long distance race, is administered approximately 50 mg/kg of SH approximately 30 minutes before the endeavor is to begin. No other analgesics or anesthetics are administered. The athlete participates in and completes the endeavor.
A subject preparing for an athletic endeavor, the running of a long distance race, is administered approximately 20 mg/kg of SI approximately 1 hours before the endeavor is to begin. No other analgesics or anesthetics are administered. The athlete participates in and completes the endeavor.
A subject preparing for an athletic endeavor, the running of a long distance race, is administered approximately 40 mg/kg of SM approximately 1 hours before the endeavor is to begin. No other analgesics or anesthetics are administered. The athlete participates in and completes the endeavor.

Assay [4] relates to discomfort of a dental procedure. Kind of assay: pain associated with a dental procedure. The assay is classed as in vivo. As to conditions: approximately 1 hours before the procedure; SF 40 mg/kg, SG 20 mg/kg. The procedure:
A subject scheduled for a dental procedure, the filling of a cavity in a tooth, is administered approximately 40 mg/kg of the p38 MAP kinase inhibitor SF approximately 1 hours before the procedure is to begin. No other analgesics or anesthetics are administered.
A subject scheduled for a dental procedure, the filling of a cavity in a tooth, is administered approximately 20 mg/kg of the p38 MAP kinase inhibitor SG approximately 1 hours before the procedure is to begin. No other analgesics or anesthetics are administered.

Assay [5] deals with thermal hyperalgesia. Kind of assay: thermal hyperalgesia, Plantar test (Hargreaves), intraplantar carrageenan. The assay is classed as in vivo, Sprague Dawley Rats. The procedure: (§1) The effects of p38 MAP kinase inhibitors on Mechanical and Thermal Hyperalgesia were evaluated as follows. Sprague Dawley Rats were evaluated in carageenan induced models whereby an intraplantar injection of carageenan was made into the left paw. At approximately 2 and 4 hour post carageenan, the left hind limb of each rat was assessed for the development of thermal hyperalgesia relative to a p38 MAP kinase inhibitor (SC), vehicle, indomethacin, and the vehicle for indomethacin. Indomethacin, a known nonsteroidal analgesic, was used as a control reference in this study. Assessment of mechanical and thermal hyperalgesia was accomplished through the use of a Randall Selitto Analgesiometer and the Hargreaves Plantar Device, respectively. Approximately 10 minutes after intraperitoneal dosing, or 30 minutes following oral indomethacin treatment, each animal was lightly anaesthetized (isoflurane in oxygen) and an intraplantar injection of carageenan was made into the left paw. Animals were allowed to recover from anesthesia. As set forth above in the carageenan model, the effect of SC was evaluated with respect to attenuation of the development of thermal hyperalgesia at either of the 2 and 4 hours post-carrageenan time points tested. As above with respect to mechanical hyperalgesia, observation of statistically significant thermal hyperalgesia development was made at both the 2 and 4 hour periods (8.2±1.5 s; P≦0.05 and 7.0±1.5 s; P≦0.01, respectively), compared to vehicle pre dose measurements (12.7±1.0 s). […] As set forth in Example 2 above, Sprague Dawley rats were evaluated in the intraplantar carageenan model. The animals were administered the p38 MAP kinase inhibitor SA, vehicle, indomethacin, and the vehicle for indomethacin. After dosing, the animals were assessed for the development of mechanical hyperalgesia and thermal hyperalgesia using the Randall Selitto Analgesiometer and the Hargreaves Plantar Device, respectively.

For assay [6], the system named is mechanical hyperalgesia. Kind of assay: mechanical hyperalgesia, Randall Selitto test, intraplantar carrageenan. The format is in vivo, Sprague Dawley Rats. The method, then:
as §1, with “anesthesia. Mechanical hyperalgesia was tested using the Randall-Selittlo test. Randall, L. & Selitto, J., Arch Int Pharmacodyn (1957) 110:409-419. The carageenan model was established as” for “anesthesia. As”, “forth above. […] In” for “forth above in”, “the same animals treated with SC,” for “the carageenan model,”, “the paw withdrawal threshold increased from a” for “the effect of SC was evaluated with respect to attenuation of the development of thermal hyperalgesia at either of the 2 and 4 hours post-carrageenan time points tested. As above with respect to mechanical hyperalgesia, observation of statistically significant thermal hyperalgesia development was made at both the 2 and 4 hour periods (8.2±1.5 s; P≦0.05 and 7.0±1.5 s; P≦0.01, respectively), compared to vehicle”, “dose threshold of 159±8 g to 177±17 g, 2 hours post-carrageenan.” for “dose measurements (12.7±1.0 s).”

For assay [7], the system named is carrageenan-induced thermal hyperalgesia. As to the kind of experiment: carrageenan-induced thermal hyperalgesia (Hargreaves-type device). The format is in vivo, rat. As to conditions: intravenous administration, pre injury. The method, then: Hyperalgesia was induced in the rat's right hindpaw by intraplantar injection of carrageenan (2 mg in 0.1 ml of a […] solution (weight/volume) in physiological saline). To assess the thermally evoked paw withdrawal time, a device modeled after that described by Hargreaves (1988) was used. See Hargreaves K, Dubner R, Brown F, Flores C, Joris J. A new and sensitive method for measuring thermal nociception in cutaneous hyperalgesia, Pain, 32, 77-88 (1988). The device consisted of a glass surface on top of which the rats were placed. The glass surface was heated by a focused projection bulb below the glass surface. The first sign of discomfort is usually expressed as an attempt to sit up and lick the forepaws by the experimental animal. This response indicates a threshold of pain under the predetermined conditions. Dancing and jumping about by an undrugged animal is an indicator of unbearable pain; whereas drugged animals more commonly withdraw the hind paws and keep them close to their abdomen. A timer was actuated with the light source and latency defined as the time required for the paw to be withdrawn from the glass surface. See Dirig D M, Isakson P C, and Yaksh T L. J Pharmacol Exp Ther., 285, 1031-8 (1998).

Assay [8] concerns NMDA-induced hyperalgesia. As to the kind of experiment: hyperalgesia induced by intrathecal NMDA. The assay is classed as in vivo, rat. The following applies: IT NMDA 0.3 μg; MK801 10 μg, IT SD 3-60 μg, IT SB 1-30 μg, SA 10 μg. From the text: Male Sprague-Dawley rats (300-350 g) were implanted under isoflurane anesthesia with lumbar polyethylene (PE-10) catheters according to a modified method originally described in Physiol. Behav. 17, 1031 (1976). […] IT saline and 5% DMSO alone had no effect on behavior or protein expression/phosphorylation.

[9] abbreviates: assay similar to the phosphorylation assay (Kumar), read-out: p38 MAPK activity, relative IC50 value.

Read-outs that look alike come from different tables or passages of the source.

T1 sequence (Q16539 whole entry): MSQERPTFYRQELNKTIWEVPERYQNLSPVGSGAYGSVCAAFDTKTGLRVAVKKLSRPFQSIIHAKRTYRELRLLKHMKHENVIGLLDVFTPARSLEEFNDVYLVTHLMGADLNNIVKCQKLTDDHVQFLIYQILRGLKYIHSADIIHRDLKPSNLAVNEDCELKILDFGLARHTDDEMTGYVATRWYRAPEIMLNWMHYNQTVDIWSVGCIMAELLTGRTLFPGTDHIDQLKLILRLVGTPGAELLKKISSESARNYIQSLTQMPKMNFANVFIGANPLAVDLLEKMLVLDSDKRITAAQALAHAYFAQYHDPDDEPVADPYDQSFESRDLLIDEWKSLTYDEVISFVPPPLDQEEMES

As usually defined, the IC50 is the concentration that inhibits the measured activity by half. Regarding `COc1cc2[nH]cc(C(=O)C(=O)N3CCOCC3)c2cc1C(=O)N1CCC(Cc2ccc(F)cc2)CC1` [SK], the “recovery after Cesarean section” value in assay [1] is on record as “recovers more rapidly from the procedure”. Moreover, in assay [2] (setting [9]), the IC50 was below 5 nM.
As to `COCn1cc(C(=O)C(=O)N(C)C)c2cc(C(=O)N3C[C@H](C)N(Cc4ccc(F)cc4)C[C@H]3C)c(OC)cc21` [SI], in assay [2], the IC50 was below 5 nM. Also, the post-activity related discomfort entry in assay [3] is listed as “reduced level of post-activity related discomfort”.
Turning to `COc1cc2c(cc1C(=O)N1CCC(Cc3ccc(F)cc3)CC1)c(C(=O)C(=O)N1CCN(C)CC1)cn2C` [SG], the “discomfort during dental procedure” value in assay [4] is recorded as “reduced level of discomfort”. For the same molecule, the IC50 in assay [2] (setting [9]) is below 5 nM.
With `C[C@@H]1CN(Cc2ccc(F)cc2)[C@@H](C)CN1C(=O)c1cc2c(C(=O)C(=O)N(C)C)cn(C)c2cc1Cl` [SC], the withdrawal latency was found to be 11.5 ± 1.1 s in assay [5] (Example 2, first of two dose levels (not given), 2 hours); 10.2 ± 1.5 s in assay [5] (Example 2, first of two dose levels (not given), 4 hours); 11.6 ± 1.1 s in assay [5] (Example 2, second of two dose levels (not given), 2 hours); 10.2 ± 0.9 s in assay [5] (Example 2, second of two dose levels (not given), 4 hours). Moreover, the paw withdrawal threshold was found to be 177 ± 17 g in assay [6] (Example 2, SC intraperitoneal, 2 hours post-carrageenan) and 153 ± 14 g in assay [6] (Example 2, SC intraperitoneal, 4 hour post-carrageenan).
As for `Cn1cc(C(=O)C(=O)N2CCCC2)c2cc(C(=O)N3CCC(Cc4ccc(F)cc4)CC3)c(Cl)cc21` [SH], the IC50 in assay [2] (setting [9]) is below 5 nM. Besides, the post-activity related discomfort entry in assay [3] is “reduced level of post-activity related discomfort”.
For the molecule `Cc1[nH]c2cc(Cl)c(C(=O)N3CCC(Cc4ccc(F)cc4)CC3)cc2c1C(=O)C(=O)N1CCN(C)CC1` [SL], the “recovery after Cesarean section” value in assay [1] is “recovers more rapidly from the procedure”. In assay [2] (setting [9]), the IC50 is below 5 nM.
Consider `C[C@@H]1CN(Cc2ccc(F)cc2)[C@@H](C)CN1C(=O)c1cc2c(C(=O)C(=O)N3CCOCC3)cn(C)c2cc1Cl` [SJ], for which, in assay [1], the “recovery after Cesarean section” value is listed as “recovers more rapidly from the procedure”. Further, the 50% inhibitory concentration (IC50) in assay [2] (setting [9]) is below 5 nM.
On to `COc1cc2[nH]cc(C(=O)C(=O)N(C)C)c2cc1C(=O)N1CC(C)N(Cc2ccc(F)cc2)CC1C` (stereo not drawn) [SE], for which the carageenan induced hyperalgesia result in assay [7] is recorded as “Attenuation of the carageenan induced hyperalgesia”. For the same molecule, the IC50 in assay [2] (setting [9]) is below 5 nM.
Turning to `COc1cc2c(cc1C(=O)N1CCC(Cc3ccc(F)cc3)CC1)c(C(=O)C(=O)O)cn2C` [SF], the “discomfort during dental procedure” value in assay [4] is recorded as “reduced level of discomfort”. For the same molecule, the IC50 in assay [2] (setting [9]) was below 5 nM.
As to `COc1cc2c(cc1C(=O)N1CCC(=Cc3ccc(F)cc3)CC1)c(C(=O)C(=O)N(C)C)cn2C` [SM], in assay [2] (setting [9]), the IC50 is below 5 nM. The post-activity related discomfort entry in assay [3] is reported as “reduced level of post-activity related discomfort”.
In the case of `COc1ccc2c(c1)c(CC(=O)O)c(C)n2C(=O)c1ccc(Cl)cc1` [indomethacin, reference compound], the “increase of withdrawal latency” value in assay [5] (Example 2, 10 mg/kg p.o., 2 hours post-carrageenan) is given as “not significant”. Further, the withdrawal latency stood at 12.5 ± 1.4 s in assay [5] (Example 2, 10 mg/kg p.o., 4 hours); 13.1 ± 0.9 s in assay [5] (Example 3, 10 mg/kg p.o., 2 hours); 9.3 ± 1.3 s in assay [5] (Example 3, 10 mg/kg p.o., 4 hours). The paw withdrawal threshold worked out at 180 ± 21 g in assay [6] (Example 2, oral 10 mg/kg, 2 hours); 188 ± 17 g in assay [6] (Example 2, oral 10 mg/kg, 4 hours); 177 ± 16 g in assay [6] (Example 3, oral 10 mg/kg, 4 hours).
With `C[C@]12N[C@H](Cc3ccccc31)c1ccccc12` [MK801], the “hyperalgesia induced by IT NMDA” value in assay [8] is given as “reversed”.
For `COc1cc2c(cc1C(=O)N1CC(C)C(Cc3ccc(F)cc3)CC1C)c(C(=O)C(=O)N(C)C)cn2C` (stereo not drawn) [SA], the “attenuation of thermal hyperalgesia” value in assay [5] (Example 3, oral, lower dose levels) was “no significant attenuation”. This molecule returned a withdrawal latency in assay [5] (Example 3, oral, 4 hours) of 11.1 ± 1.4 s. Further, the IC50 in assay [2] (setting [9]) is below 5 nM. For the same molecule, in assay [6] (Example 3, oral, 30 minutes prior to carrageenan, 4 hours), the paw withdrawal threshold came out at 159 ± 19 g.

(Values after US20080039461A1, “Treatment of pain by inhibition of p38 map kinase” (priority 2002, published 2008).)
